Laboratory results as given in patent US9676715B2, “Bis-indolic derivatives, a process for preparing the same and their uses as a drug” (UNIVERSITE JOSEPH FOURIER, priority 2011, dated 2017).
In brackets after ≈: the same amount, converted by molar mass. Where two headings read alike, the source gives them in different places.

Assays:
[1] = system: S. epidermidis CIP 103627; test: MIC, microdilution method (9.1); type: cell-based, Staphylococcus epidermidis
Procedure: (§1) The microdilution method recommended by the Clinical and Laboratory Standard Institute [M07-A8, Vol. 29, No. 2] was used. The activity of indolic compounds was tested against 29 bacterial strains belonging to 17 different species and 12 different genera (Staphylococcus, Streptococcus, Enterococcus, Listeria, Bacillus, Haemophilus, Escherichia, Klebsiella, Enterobacter, Serratia, Pseudomonas, and Acinetobacter). Bacterial inocula were prepared in Mueller Hinton broth (MH2, bioMérieux, Marcy L'Etoile, France), supplemented with 10% sheep blood for fastidious species (i.e., Streptococcus pneumoniae and Haemophilus influenzae). They were dispensed in 96 well microtiter plates (5×10^5 CFU/ml of final inoculum). Indolic compounds were added to the wells as to obtain two-fold serial concentrations (0.50-128 mg/L of final concentrations). Plates were incubated at 37° C. in ambient air, or at 37° C. in 5% CO2 enriched atmosphere for fastidious species. […] Drug-free cultures served as growth controls. Cultures receiving gentamicin, ciprofloxacin or cefotaxime served as positive controls.

[2] = system: S. epidermidis ATCC 12228; test: MIC, microdilution method (9.1); type: cell-based, Staphylococcus epidermidis
Procedure: as §1

S. epidermidis CIP 81.55 = test: MIC, microdilution method (9.1); type: cell-based, Staphylococcus epidermidis
Procedure: as §1

S. pneumoniae ATCC 6303 = test: MIC, microdilution method (9.1); type: cell-based, Streptococcus pneumoniae; conditions: 5% CO2, 18 h
Procedure: as §1

[3] = system: 29 bacterial strains belonging to 17 different species; test: MIC determination, overall statements on the bacterial panel; type: cell-based; conditions: summary of MIC results
Procedure: as §1

[4] = system: S. agalactiae (group B) ATCC 12400; test: MIC, microdilution method (9.1); type: cell-based, Streptococcus agalactiae
Procedure: as §1

[5] = system: S. pyogenes (group A) CIP 104226; test: MIC, microdilution method (9.1); type: cell-based, Streptococcus pyogenes
Procedure: as §1

E. faecium CIP 54.32 = test: MIC, microdilution method (9.1); type: cell-based, Enterococcus faecium
Procedure: as §1

E. faecalis ATCC 29212 = test: MIC, microdilution method (9.1); type: cell-based, Enterococcus faecalis
Procedure: as §1

S. mitis CIP 103335 = test: MIC, microdilution method (9.1); type: cell-based, Streptococcus mitis
Procedure: as §1

[6] = system: Klebsiella pneumoniae API ATCC 35657; test: MIC, microdilution method (9.1); type: cell-based
Procedure: as §1

[7] = system: Listeria innocua CIP 80.11; test: MIC, microdilution method (9.1); type: cell-based
Procedure: as §1

[8] = system: Acinetobacter baumanii ATCC 19606; test: MIC, microdilution method (9.1); type: cell-based
Procedure: as §1

[9] = system: Bacillus subtilis CIP 5262; test: MIC, microdilution method (9.1); type: cell-based
Procedure: as §1

[10] = system: Pseudomonas aeruginosa CIP 5933; test: MIC, microdilution method (9.1); type: cell-based
Procedure: as §1

[11] = system: S. aureus ATCC 106414 (VISA); test: MIC, microdilution method (9.1); type: cell-based, Staphylococcus aureus; conditions: read after 18 h
Procedure: as §1

S. aureus ATCC 25923 = test: MIC, microdilution method (9.1); type: cell-based, Staphylococcus aureus
Procedure: as §1

S. aureus SA-1199B = test: MIC, microdilution method (9.1); type: cell-based, Staphylococcus aureus
Procedure: as §1

[12] = system: S. aureus ATCC 33592 (MRSA); test: MIC, microdilution method (9.1); type: cell-based, Staphylococcus aureus; conditions: read after 18 h
Procedure: as §1

S. aureus ATCC 9144 = test: MIC, microdilution method (9.1); type: cell-based, Staphylococcus aureus
Procedure: as §1

S. aureus CIP 65.6 = test: MIC, microdilution method (9.1); type: cell-based, Staphylococcus aureus
Procedure: as §1

[13] = system: S. aureus CIP 65.25 (MRSA); test: MIC, microdilution method (9.1); type: cell-based, Staphylococcus aureus; conditions: read after 18 h
Procedure: as §1

S. aureus ATCC 6538 = test: MIC, microdilution method (9.1); type: cell-based, Staphylococcus aureus
Procedure: as §1

S. aureus ATCC 29213 = test: MIC, microdilution method (9.1); type: cell-based, Staphylococcus aureus
Procedure: as §1

S. aureus CIP 103428 = test: MIC, microdilution method (9.1); type: cell-based, Staphylococcus aureus
Procedure: as §1

[14] = system: MRC5 (human lung fibroblast); test: In vitro cytotoxicity; type: cell-based; conditions: read-out: % of cellular growth inhibition
Procedure: (§2) In vitro cytotoxicity was assayed on three cell lines—KB (human mouth carcinoma), MCR5 (human lung fibroblast) and HCT116 (human colon tumor). Results are presented in table IV as % of cellular growth inhibition in presence of 10^−5 M and 10^−6 M of the tested bis-indolic derivatives.

[15] = system: HCT116 (human colon tumor); test: In vitro cytotoxicity; type: cell-based; conditions: read-out: % of cellular growth inhibition
Procedure: as §2

[16] = system: KB (human mouth carcinoma); test: In vitro cytotoxicity; type: cell-based; conditions: read-out: % of cellular growth inhibition
Procedure: as §2

[17] = system: HCT116 (human colon tumor); test: In vitro cytotoxicity; type: cell-based; conditions: HCT-116, HCT116, from 100 μM to 0.005 μM in DMSO, duplicate
[18] = system: Haemophilus influenzae ATCC 49766; test: MIC, microdilution method (9.1); type: cell-based; conditions: ATCC49766; Haemophilus influenzae ATCC 49766; 10% sheep blood, 5% CO2; 18 h; read-out: MIC
Procedure: as §1

[19] = system: Enterobacter cloacae ATCC13047; test: MIC, microdilution method (9.1); type: cell-based; conditions: 18 h
Procedure: as §1

[20] = system: Serratia marcescens CIP 103551; test: MIC, microdilution method (9.1); type: cell-based; conditions: CIP103551, 18 h
Procedure: as §1

[21] = system: Escherichia coli ATCC 25922; test: MIC, microdilution method (9.1); type: cell-based; conditions: ATCC25922, 18 h
Procedure: as §1

S. pneumoniae ATCC 49619 = test: MIC, microdilution method (9.1); type: cell-based; conditions: Streptococcus pneumoniae, ATCC49619, 10% sheep blood, 5% CO2, 18 h
Procedure: as §1

[22] = Staphylococcus aureus, read-out: MIC

## tert-Butyl (2-(p-bromo)benzamido-2-(5-bromo-1H-indol-3-yl)ethyl)carbamate [Compound 8a]
[1]; read after 18 h
  MIC: >32 µg/mL
[2]; read after 18 h
  MIC: >32 µg/mL
S. epidermidis CIP 81.55; read after 18 h
  MIC: >32 µg/mL
S. pneumoniae ATCC 6303; 10% sheep blood
  MIC: 128 µg/mL
[3]
  intrinsic antibacterial activity (in words): lack of intrinsic antibacterial activity
[4]; 18 h
  MIC: 64 µg/mL
[5]; 18 h
  MIC: >128 µg/mL
E. faecium CIP 54.32; 18 h
  MIC: >128 µg/mL
E. faecalis ATCC 29212; 18 h
  MIC: >128 µg/mL
S. mitis CIP 103335; 18 h
  MIC: >128 µg/mL
[6]; 18 h
  MIC: 64 µg/mL
[7]; 18 h
  MIC: >128 µg/mL
[8]; 18 h
  MIC: >128(>32) mg/L
[9]; 18 h
  MIC: >128 µg/mL
[10]; 18 h
  MIC: >128(>32) mg/L
[11]
  MIC: >32 µg/mL
S. aureus ATCC 25923; read after 18 h
  MIC: >128(>32) mg/L
S. aureus SA-1199B; S. aureus SA-1199B, read after 18 h
  MIC: >32 µg/mL
[12]
  MIC: >32 µg/mL
S. aureus ATCC 9144; read after 18 h
  MIC: >32 µg/mL
S. aureus CIP 65.6; read after 18 h
  MIC: >32 µg/mL
[13]
  MIC: >32 µg/mL
S. aureus ATCC 6538; read after 18 h
  MIC: >32 µg/mL
S. aureus ATCC 29213; read after 18 h
  MIC: >32 µg/mL
S. aureus CIP 103428; read after 18 h
  MIC: >32 µg/mL

## CC(C)(C)OC(=O)NCC(NC(=O)c1c[nH]c2cc(Br)ccc12)c1c[nH]c2ccc(Br)cc12 (centres unmarked) [Compound 3g, tert-Butyl(2-(5-bromo-1H-indol-3-yl)-2-(6-bromo-1H-indolyl-3-carboxamido)ethyl)carbamate]
[1]; Staphylococcus epidermidis, CIP103627, read after 18 h, read-out: MIC
  MIC: 2 µg/mL (≈ 3.47 µM)
[2]; Staphylococcus epidermidis, ATCC12228, read after 18 h, read-out: MIC
  MIC: 1 µg/mL (≈ 1.74 µM)
S. epidermidis CIP 81.55; Staphylococcus epidermidis, CIP81, read after 18 h, read-out: MIC
  MIC: 2 µg/mL (≈ 3.47 µM)
[14]; 10^−5 M
  inhibition at 10 µM: 83 ± 10%
[14]; 10^−6 M
  inhibition at 1 µM: 0%
[15]; HCT-116, 10^−5 M
  inhibition at 10 µM: 86 ± 2%
[15]; HCT-116, 10^−6 M
  inhibition at 1 µM: 9%
[16]; 10^−5 M
  inhibition at 10 µM: 98 ± 1%
[16]; 10^−6 M
  inhibition at 1 µM: 0%
S. pneumoniae ATCC 6303; Streptococcus pneumoniae, ATCC6303, 10% sheep blood, read-out: MIC
  MIC: 32 µg/mL (≈ 55.5 µM)
[4]; Streptococcus agalactiae, ATCC12400, 18 h, read-out: MIC
  MIC: 64 µg/mL (≈ 111 µM)
[5]; Streptococcus pyogenes, CIP104226, 18 h, read-out: MIC
  MIC: 64 µg/mL (≈ 111 µM)
[17]; first value
  IC50: 5.48 µM
[17]; second value
  IC50: 6.06 µM
E. faecium CIP 54.32; Enterococcus faecium, CIP54, 18 h, read-out: MIC
  MIC: > 128 µg/mL
E. faecalis ATCC 29212; Enterococcus faecalis, ATCC29212, 18 h, read-out: MIC
  MIC: > 128 µg/mL
S. mitis CIP 103335; Streptococcus mitis, CIP103335, 18 h, read-out: MIC
  MIC: 64 µg/mL (≈ 111 µM)
[18]
  MIC: 64 µg/mL (≈ 111 µM)
[19]
  MIC: > 128 µg/mL
[20]
  MIC: > 128 µg/mL
[6]; ATCC35657, 18 h, read-out: MIC
  MIC: > 128 µg/mL
[21]
  MIC: > 128 µg/mL
[7]; CIP80, 18 h, read-out: MIC
  MIC: 128 µg/mL (≈ 222 µM)
[8]; Acinetobacter baumannii, ATCC19606, 18 h, read-out: MIC
  MIC: > 128 µg/mL
S. pneumoniae ATCC 49619
  MIC: 32 µg/mL (≈ 55.5 µM)
[9]; CIP5262, 18 h, read-out: MIC
  MIC: 32 µg/mL (≈ 55.5 µM)
[10]; CIP5933, 18 h, read-out: MIC
  MIC: > 128 µg/mL
[11]; [22]
  MIC: 1 µg/mL (≈ 1.74 µM)
S. aureus ATCC 25923; Staphylococcus aureus, ATCC25923, read after 18 h, read-out: MIC
  MIC: 2 µg/mL (≈ 3.47 µM)
S. aureus SA-1199B; Staphylococcus aureus, SA1199B, 18 h
  MIC: 2 µg/mL (≈ 3.47 µM)
[12]; [22]
  MIC: 2 µg/mL (≈ 3.47 µM)
S. aureus ATCC 9144; Staphylococcus aureus, ATCC9144, read after 18 h, read-out: MIC
  MIC: 2 µg/mL (≈ 3.47 µM)
S. aureus CIP 65.6; Staphylococcus aureus, CIP65, read after 18 h, read-out: MIC
  MIC: 2 µg/mL (≈ 3.47 µM)
[13]; [22]
  MIC: 1 µg/mL (≈ 1.74 µM)
S. aureus ATCC 6538; Staphylococcus aureus, ATCC6538, read after 18 h, read-out: MIC
  MIC: 2 µg/mL (≈ 3.47 µM)
S. aureus ATCC 29213; Staphylococcus aureus, ATCC29213, read after 18 h, read-out: MIC
  MIC: 2 µg/mL (≈ 3.47 µM)
S. aureus CIP 103428; Staphylococcus aureus, CIP103428, read after 18 h, read-out: MIC
  MIC: 1 µg/mL (≈ 1.74 µM)
